Tests used:
Tolloid-like protein 1 = Tolloid-like protein 1 (Homo sapiens, UniProt O43897, I156V/N221S/V284A); assay: Inhibition of recombinant human TLL1 I156V/N221S/V284A mutant expressed in CHOE1A cells pre-incubated for 10 mins before promyostatin peptide substrate addition and measured after 60 mins by FRET based assay; type: cell-based
[1] = biological target: T1, Bone morphogenetic protein 1 (Homo sapiens, UniProt P13497); assay: Inhibition of C-terminal FLAG-6x-His epitope tagged and N-terminal human RAGE signal sequence tagged human BMP1 (23 to 721 amino acids) expressed in CHO-E1A cells pre-incubated for 10 mins before promyostatin peptide substrate addition and measured after 30 mins using 50 nM BMP1 by FRET based assay; type: cell-based
T1 sequence (P13497 whole entry): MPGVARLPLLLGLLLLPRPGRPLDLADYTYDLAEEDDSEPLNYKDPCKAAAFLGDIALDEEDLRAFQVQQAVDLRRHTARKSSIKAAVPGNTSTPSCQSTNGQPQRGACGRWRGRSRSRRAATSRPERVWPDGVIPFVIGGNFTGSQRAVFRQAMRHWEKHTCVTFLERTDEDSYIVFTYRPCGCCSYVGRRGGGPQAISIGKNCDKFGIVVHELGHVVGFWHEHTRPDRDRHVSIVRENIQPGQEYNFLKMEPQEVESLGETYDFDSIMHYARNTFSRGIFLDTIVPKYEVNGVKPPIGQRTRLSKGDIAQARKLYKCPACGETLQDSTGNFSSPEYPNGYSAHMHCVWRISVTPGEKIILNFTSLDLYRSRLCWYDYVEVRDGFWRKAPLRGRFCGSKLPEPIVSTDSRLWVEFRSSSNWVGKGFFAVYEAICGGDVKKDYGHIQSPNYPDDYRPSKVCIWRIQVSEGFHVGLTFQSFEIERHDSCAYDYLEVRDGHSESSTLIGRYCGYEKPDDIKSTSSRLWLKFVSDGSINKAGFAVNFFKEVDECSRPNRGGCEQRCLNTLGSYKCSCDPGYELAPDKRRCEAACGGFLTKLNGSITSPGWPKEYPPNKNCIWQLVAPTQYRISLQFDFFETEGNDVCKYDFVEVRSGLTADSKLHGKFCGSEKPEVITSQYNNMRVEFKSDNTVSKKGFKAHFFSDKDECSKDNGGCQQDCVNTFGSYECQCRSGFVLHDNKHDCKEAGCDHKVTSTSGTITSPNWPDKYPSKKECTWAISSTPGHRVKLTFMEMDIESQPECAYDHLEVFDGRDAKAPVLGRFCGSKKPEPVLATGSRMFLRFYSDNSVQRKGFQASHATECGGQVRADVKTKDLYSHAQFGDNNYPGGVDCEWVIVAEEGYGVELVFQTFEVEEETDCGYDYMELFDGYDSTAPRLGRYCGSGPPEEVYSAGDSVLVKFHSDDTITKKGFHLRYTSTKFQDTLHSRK

[2] = Reduction in PICP levels in human cardiac fibroblasts incubated for 24 to 48 hrs by ELISA; type: functional
[3] = biological target: T1, Bone morphogenetic protein 1; assay: Inhibition of C-terminal FLAG-6x-His epitope tagged and N-terminal human RAGE signal sequence tagged human BMP1 (23 to 721 amino acids) expressed in CHO-E1A cells pre-incubated for 10 mins before promyostatin peptide substrate addition and measured after 60 mins using 0.5 nM BMP1 by FRET based assay; type: cell-based
Tolloid-like protein 2 = biological target: T2, Tolloid-like protein 2 (Homo sapiens, UniProt Q9Y6L7); assay: Inhibition of C-terminal Avi-6x-His epitope tagged and N-terminal human RAGE signal sequence tagged recombinant human TLL2 (26 to 1015 amino acids) expressed in CHOE1A cells incubated for 60 mins with promyostatin peptide substrate by FRET based assay; type: cell-based
T2 sequence (Q9Y6L7 whole entry): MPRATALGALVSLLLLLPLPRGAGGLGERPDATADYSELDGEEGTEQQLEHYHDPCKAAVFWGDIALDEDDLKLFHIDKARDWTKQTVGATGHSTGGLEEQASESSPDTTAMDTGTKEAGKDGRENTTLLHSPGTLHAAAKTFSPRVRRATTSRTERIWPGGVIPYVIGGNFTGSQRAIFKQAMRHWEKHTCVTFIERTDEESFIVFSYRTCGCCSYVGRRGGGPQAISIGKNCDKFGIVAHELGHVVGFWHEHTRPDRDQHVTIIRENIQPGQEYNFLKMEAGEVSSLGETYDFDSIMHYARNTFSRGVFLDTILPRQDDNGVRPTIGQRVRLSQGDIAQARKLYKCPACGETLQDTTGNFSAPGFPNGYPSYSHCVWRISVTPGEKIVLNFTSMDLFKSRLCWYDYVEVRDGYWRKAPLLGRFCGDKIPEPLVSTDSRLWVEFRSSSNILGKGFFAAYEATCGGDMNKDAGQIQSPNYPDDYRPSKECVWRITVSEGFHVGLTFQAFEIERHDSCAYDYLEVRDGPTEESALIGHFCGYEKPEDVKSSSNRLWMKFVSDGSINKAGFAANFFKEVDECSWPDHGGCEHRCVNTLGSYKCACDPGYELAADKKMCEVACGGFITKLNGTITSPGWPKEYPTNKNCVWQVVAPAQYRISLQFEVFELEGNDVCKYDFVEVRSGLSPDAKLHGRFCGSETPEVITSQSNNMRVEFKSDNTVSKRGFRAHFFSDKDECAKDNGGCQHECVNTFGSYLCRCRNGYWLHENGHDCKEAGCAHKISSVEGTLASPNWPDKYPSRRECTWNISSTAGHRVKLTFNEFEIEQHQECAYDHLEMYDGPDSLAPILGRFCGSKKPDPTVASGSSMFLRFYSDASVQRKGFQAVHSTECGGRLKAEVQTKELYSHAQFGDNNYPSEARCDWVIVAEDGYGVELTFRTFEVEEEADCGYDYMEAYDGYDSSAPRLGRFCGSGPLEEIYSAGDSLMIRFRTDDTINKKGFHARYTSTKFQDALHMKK

Chain of Tolloid-like protein 1 (O43897 148-1013 I156V/N221S/V284A limits assumed): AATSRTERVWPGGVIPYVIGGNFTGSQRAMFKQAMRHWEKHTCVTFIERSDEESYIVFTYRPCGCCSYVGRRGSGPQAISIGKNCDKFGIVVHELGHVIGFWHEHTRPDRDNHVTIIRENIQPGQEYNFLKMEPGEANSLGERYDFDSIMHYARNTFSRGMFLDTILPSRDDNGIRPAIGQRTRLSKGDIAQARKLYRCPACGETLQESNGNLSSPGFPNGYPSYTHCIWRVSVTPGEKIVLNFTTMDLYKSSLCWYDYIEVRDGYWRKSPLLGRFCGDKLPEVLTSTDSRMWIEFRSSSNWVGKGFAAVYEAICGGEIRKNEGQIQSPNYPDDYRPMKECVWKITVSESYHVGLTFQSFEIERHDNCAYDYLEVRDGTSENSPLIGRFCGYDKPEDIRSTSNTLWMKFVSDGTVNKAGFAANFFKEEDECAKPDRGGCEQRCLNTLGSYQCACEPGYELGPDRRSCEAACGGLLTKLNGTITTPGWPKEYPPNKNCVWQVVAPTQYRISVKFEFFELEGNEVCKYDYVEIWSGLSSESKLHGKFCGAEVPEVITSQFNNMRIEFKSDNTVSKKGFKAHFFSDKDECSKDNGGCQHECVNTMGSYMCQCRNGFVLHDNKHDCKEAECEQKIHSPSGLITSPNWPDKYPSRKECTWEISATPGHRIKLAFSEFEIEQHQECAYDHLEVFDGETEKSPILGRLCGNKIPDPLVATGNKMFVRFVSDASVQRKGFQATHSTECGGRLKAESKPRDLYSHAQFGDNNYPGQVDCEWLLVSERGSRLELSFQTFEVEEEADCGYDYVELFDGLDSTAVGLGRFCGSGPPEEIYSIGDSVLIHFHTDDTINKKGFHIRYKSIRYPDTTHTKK

| Compound | IC50 (Tolloid-like protein 1) [µM] | IC50 [1] [µM] | IC50 [2] [µM] | IC50 [3] [µM] | IC50 (Tolloid-like protein 2) [µM] |
| --- | --- | --- | --- | --- | --- |
| CCCCC[C@@H](C(=O)NCNC(=O)c1cccc(-c2ccc(P(=O)(O)O)c(OCC)c2)c1)[C@@H](CC)N(O)C=O | < 0.398 | < 0.251 | < 20 | < 0.126 | < 0.631 |
| CCCCC[C@@H](C(=O)NCNC(=O)c1cccc(-c2cc(OCC)cc(C(=O)N(CC(=O)O)CC(=O)O)c2)n1)[C@@H](CC)N(O)C=O | < 0.398 | < 0.251 | < 20 | < 0.126 | < 0.631 |
| CCCCC[C@@H](C(=O)NCNC(=O)c1cccc(-c2ccc(C(=O)O)c(C(=O)O)c2)n1)[C@@H](CC)N(O)C=O | < 0.398 | < 0.251 | < 20 | < 0.126 | < 0.631 |
| CCCCC[C@@H](C(=O)NCNC(=O)c1cccc(-c2ccc(C(=O)NCP(=O)(O)O)c(OCC)c2)n1)[C@@H](CC)N(O)C=O | < 0.398 | < 0.251 | < 20 | < 0.126 | < 0.631 |
| CCCCC[C@@H](C(=O)NCNC(=O)c1cccc(-c2cc(OCC)cc(C(=O)O)c2O)n1)[C@@H](CC)N(O)C=O | < 0.398 | < 0.251 | < 20 | < 0.126 | < 0.631 |
| CCCCC[C@@H](C(=O)NCNC(=O)c1cncc(-c2ccc(C(=O)O)c(OCC)c2)n1)[C@@H](CC)N(O)C=O | < 0.398 | < 0.251 | < 20 | < 0.126 | < 0.631 |
| CCCCC[C@@H](C(=O)NCNC(=O)c1cccc(-c2cc(O)cc(P(=O)(O)O)c2)n1)[C@@H](CC)N(O)C=O | < 0.398 | < 0.251 | < 20 | < 0.126 | < 0.631 |
| CCCCC[C@@H](C(=O)NCNC(=O)c1cccc(-c2ccc(C(=O)O)c(O)c2)c1)[C@@H](CC)N(O)C=O | < 0.398 | < 0.251 | < 20 | < 0.126 | < 0.631 |
| CCCCC[C@@H](C(=O)NCNC(=O)c1cccc(-c2ccc(C(=O)N[C@@H](CC(=O)O)C(=O)O)c(OCC(=O)O)c2)n1)[C@@H](CC)N(O)C=O | < 0.398 | < 0.251 | < 20 | < 0.126 | < 0.631 |
| CCCCC[C@@H](C(=O)NCNC(=O)c1cccc(-c2cc(OCC)cc(P(=O)(O)O)c2)c1)[C@@H](CC)N(O)C=O | < 0.398 | < 0.251 | < 20 | < 0.126 | < 0.631 |
| CCCCC[C@@H](C(=O)NCNC(=O)c1cccc(-c2cc(OCC)cc(C(=O)N[C@@H](CC(=O)O)C(=O)O)c2)n1)[C@@H](CC)N(O)C=O | < 0.398 | < 0.251 | < 20 | < 0.126 | < 0.631 |
| CCCCC[C@@H](C(=O)NCNC(=O)c1cccc(-c2cc(OCC(=O)O)cc(C(=O)O)c2)n1)[C@@H](CC)N(O)C=O | < 0.398 | < 0.251 | < 20 | < 0.126 | < 0.631 |
| CCCCC[C@@H](C(=O)NCNC(=O)c1cccc(-c2ccc(C(=O)NCP(=O)(O)O)c(C)c2)n1)[C@@H](CC)N(O)C=O | < 0.398 | < 0.251 | < 20 | < 0.126 | < 0.631 |
| CCCCC[C@@H](C(=O)NCNC(=O)c1cccc(-c2ccc(C(=O)N(CC(=O)O)CC(=O)O)c(OCC)c2)n1)[C@@H](CC)N(O)C=O | < 0.398 | < 0.251 | < 20 | < 0.126 | < 0.631 |
| CCCCC[C@@H](C(=O)NCNC(=O)c1cc(C(=O)O)cc(-c2ccccc2)c1)[C@@H](CC)N(O)C=O | < 0.398 | < 0.251 | < 20 | < 0.126 | < 0.631 |
| CCCCC[C@@H](C(=O)NCNC(=O)c1cccc(-c2cc(C(=O)OCC)cc(S(N)(=O)=O)c2)n1)[C@@H](CC)N(O)C=O | < 0.398 | < 0.251 | < 20 | < 0.126 | < 0.631 |
| CCCCC[C@@H](C(=O)NCNC(=O)c1cccc(-c2ccc(C(=O)N[C@@H](CC(=O)O)C(=O)O)c(F)c2)n1)[C@@H](CC)N(O)C=O | < 0.398 | < 0.251 | < 20 | < 0.126 | < 0.631 |
| CCCCC[C@@H](C(=O)NCNC(=O)c1cccc(-c2cc(OCC)cc(P(=O)(O)O)c2)n1)[C@@H](CC)N(O)C=O | < 0.398 | < 0.251 | < 20 | < 0.126 | < 0.631 |
| CCCCC[C@@H](C(=O)NCNC(=O)c1cccc(-c2ccc(C(=O)NCP(=O)(O)O)cc2)n1)[C@@H](CC)N(O)C=O | < 0.398 | < 0.251 | < 20 | < 0.126 | < 0.631 |
| CCCCC[C@@H](C(=O)NCNC(=O)c1cccc(-c2ccc(C(=O)NCP(=O)(O)O)c(O)c2)n1)[C@@H](CC)N(O)C=O | < 0.398 | < 0.251 | < 20 | < 0.126 | < 0.631 |
| CCCCC[C@@H](C(=O)NCNC(=O)c1cccc(-c2cccc(S)c2)c1)[C@@H](CC)N(O)C=O | < 0.398 | < 0.251 | < 20 | < 0.126 | < 0.631 |
| CCCCC[C@@H](C(=O)NCNC(=O)c1cccc(-c2ccc(C(=O)N[C@@H](CC(=O)O)C(=O)O)c(Cl)c2)n1)[C@@H](CC)N(O)C=O | < 0.398 | < 0.251 | < 20 | < 0.126 | < 0.631 |
| CCCCC[C@@H](C(=O)NCNC(=O)c1ccc(F)c(-c2ccc(C(=O)O)c(OCC)c2)n1)[C@@H](CC)N(O)C=O | < 0.398 | < 0.251 | < 20 | < 0.126 | < 0.631 |
| CCCCC[C@@H](C(=O)NCNC(=O)c1cccc(-c2cc(OCC)cc(S(=O)(=O)O)c2)c1)[C@@H](CC)N(O)C=O | < 0.398 | < 0.251 | < 20 | < 0.126 | < 0.631 |
| CCCCC[C@@H](C(=O)NCNC(=O)c1cccc(-c2ccc(C(=O)N[C@@H](CC(=O)O)C(=O)O)c(OCC(=O)O)c2)c1)[C@@H](CC)N(O)C=O | < 0.398 | < 0.251 | < 20 | < 0.126 | < 0.631 |
| CCCCC[C@@H](C(=O)NCNC(=O)c1cccc(-c2ccc(C(=O)N[C@@H](CC(=O)O)C(=O)O)c(OCC)c2)c1)[C@@H](CC)N(O)C=O | < 0.398 | < 0.251 | < 20 | < 0.126 | < 0.631 |

Reference: ChEMBL document CHEMBL4476883, “Hydroxy formamide derivatives and their use” (2017)
